The target of assay [1] is T1, SHP-2 enzyme (Met1-Leu525), SHP2wt (Homo sapiens, UniProt Q06124).
T1 construct: synthetized by Origene, Met1-Leu525, cat #TP750155; purchased Origene TP750155
T1 sequence (Q06124 1-525): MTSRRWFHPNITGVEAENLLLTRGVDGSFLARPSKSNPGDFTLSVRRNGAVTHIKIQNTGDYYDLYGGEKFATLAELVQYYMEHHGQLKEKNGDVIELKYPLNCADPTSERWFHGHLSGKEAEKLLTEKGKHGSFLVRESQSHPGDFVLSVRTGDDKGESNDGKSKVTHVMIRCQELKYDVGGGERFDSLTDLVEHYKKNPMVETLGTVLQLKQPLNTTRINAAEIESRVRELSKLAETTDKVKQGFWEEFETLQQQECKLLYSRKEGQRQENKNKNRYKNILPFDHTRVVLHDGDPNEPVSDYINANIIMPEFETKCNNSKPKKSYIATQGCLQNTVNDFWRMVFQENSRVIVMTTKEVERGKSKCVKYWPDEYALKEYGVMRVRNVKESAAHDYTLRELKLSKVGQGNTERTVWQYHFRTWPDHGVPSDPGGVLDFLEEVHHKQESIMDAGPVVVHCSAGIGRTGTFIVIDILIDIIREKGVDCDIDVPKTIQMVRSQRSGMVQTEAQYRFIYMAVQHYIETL
The assay can be described thus: SHP2 inhibition enzymatic assay. It counts as biochemical. The settings on record: 0.5 nM SHP-2 activated by 500 nM IRS1 peptide, 75 μM DiFMUP substrate. The protocol:
The assay was performed as described in YP Chen et al, Nature (535) 2016. Assay volume of 20 μL/well was assembled in 384 well black polystyrene low-binding microplates (Greiner), using the following buffer: 60 mM HEPES pH 7.2, 75 mM NaCl, 75 mM KCl, 1 mM EDTA pH 8, 0.05% tween-20, 5 mM DTT. The SHP-2 enzyme (synthetized by Origene, Met1-Leu525, cat #TP750155) was used at a final concentration of 0.5 nM. The enzyme was activated by 500 nM IRS1 peptide (sequence: H2N-LN(pY)IDLDLV(dPEG8)LST(pY)ASINFQK-amide; Wang et al., iScience 25,104009, Apr. 15, 2022, https://doi.org/10.1016/j.isci.2022.104009) and incubated with 75 μM DiFMUP (Sigma) as substrate.
Briefly, DMSO serially diluted testing compounds were transferred to the bottom of the assay plate. SHP2 was then added together with the IRS1 peptide 30 min post incubation, the DiFMUP substrate was added to the reaction and incubated 30 min at rt. Finally 5 μL of 160 μM bpV (potassium bisperoxo[1,10-phenanthroline]oxovanadate [V], Sigma) were added to stop and quench the reaction. The fluorescence was detected by a microplate reader (Envision, PerkinElmer) according to the DiFMUP excitation and emission wavelength. The lower the fluorescence the higher the SHP2 inhibition.
The activity of each compound dilution was calculated as percentage of inhibition between vehicle (DMSO, 0% inhibition) and no enzyme (100% inhibition). The percentage inhibition is fitted against the compound dilutions with a four-parameter logistic regression. The inflection point (i.e. the concentration at which half-maximal inhibition is achieved) is the IC50.
Legend: A indicates IC50 less or equal to 0.05 μM; B indicates IC50 greater than 0.05 μM and lower or equal to 0.3 μM.

Assay [2] concerns phospho-ERK1/2 (Thr202/Tyr204). Nature of the assay: Phospho-ERK cellular assay. The following applies: Homo sapiens; KYSE-520 cells, 2 h at 37° C, TR-FRET; read-out: pERK IC50. It counts as cell-based. The protocol:
ERK phosphorylation was detected using the “Advanced phospho-ERK1/2 (Thr202/Tyr204)” TR-FRET kit (Cisbio, Cat #64AERPEG/H), following the manufacturer reagents and instructions.
Briefly, 20.000/well KYSE-520 cells (DSMZ ACC 371) were plated in 6 μL RPMI-1640 (Invitrogen) growth medium, into 384 white low-volume high base TC microplates (Greiner). After an overnight incubation, cells were treated with DMSO serial diluted compounds and incubated for 2 h at 37° C. After incubation, 2 μL/well of 4×Lysis Buffer (Cisbio 64KL1FDF), were added and incubated with cells for 30 min on gentle shaking. Finally, lysates were added with 2 μL/well of Eu cryptate (donor) and D2 (acceptor) conjugated antibodies (as provided by the Cisbio kit #64AERPEG/H) diluted 1:100 in Detection Buffer (as provided by the Cisbio kit #64AERPEG/H). Plates were then sealed and incubated at rt in the dark. After an overnight incubation, the TR-FRET signal was detected on a suitable reader (Envision, PerkinElmer).
The lower the TR-FRET signal the higher the higher the SHP2 inhibition in cells.
The activity of each compound dilution was calculated as percentage between vehicle DMSO treated cells and no cells, 0% inhibition and 100% inhibition respectively. The percentage activity is fitted against the compound dilutions with a four-parameter logistic regression. The inflection point (i.e. the concentration at which half-maximal inhibition is achieved) is the IC50.
Legend: “+” indicates IC50 equal or higher than 0.5 μM; “++” indicates IC50 less than 0.5 μM and higher or equal to 0.1 μM; “+++” indicates IC50 less than 0.1 μM.

Some results are limits rather than exact numbers.

In patent US20260109699A1, “AZOLE DERIVATIVES AS SHP2 INHIBITORS” (IRBM S.P.A., priority 2022, published 2026) one finds IC50 data, which are given here for 18 molecules.

With `Cc1nc(N2CCC3(CC2)Cn2ncc(F)c2[C@H]3N)cc(=O)n1-c1cccc(Cl)c1Cl` (atropisomer, axis not shown) [Example 1, (S)-6-(4′-amino-3′-fluoro-4′H,6′H-spiro[piperidine-4,5′-pyrrolo[1,2-b]pyrazol]-1-yl)-3-(2,3-dichlorophenyl)-2-methylpyrimidin-4(3H)-one], the IC50 is ≤ 50 nM in assay [1] and 100 to 500 nM in assay [2].

As for `Cc1nc(N2CCC3(CC2)Cn2nccc2[C@H]3N)cnc1Sc1ccnc(C)c1F` [Example 4, (S)-1-(5-((3-fluoro-2-methylpyridin-4-yl)thio)-6-methylpyrazin-2-yl)-4′H,6′H-spiro[piperidine-4,5′-pyrrolo[1,2-b]pyrazol]-4′-amine], the IC50 in assay [1] is ≤ 50 nM; in assay [2], 100 to 500 nM.

In the case of `Cn1c(N2CCC3(CC2)Cn2nccc2[C@H]3N)ncc(-c2cccc(F)c2F)c1=O` [Example 5, (S)-2-(4′-amino-4′H,6′H-spiro[piperidine-4,5′-pyrrolo[1,2-b]pyrazol]-1-yl)-5-(2,3-difluorophenyl)-3-methylpyrimidin-4(3H)-one], the values for the IC50 in assay [1] and in assay [2] were 50 to 300 nM and > 500 nM, respectively.

With `Cc1nc(N2CCC3(CC2)Cn2nccc2[C@H]3N)cnc1Sc1cccc(Cl)c1Cl` [Example 6, (S)-1-(5-((2,3-dichlorophenyl)thio)-6-methylpyrazin-2-yl)-4′H,6′H-spiro[piperidine-4,5′-pyrrolo[1,2-b]pyrazol]-4′-amine], the IC50 was ≤ 50 nM in assay [1] and 100 to 500 nM in assay [2].

With `N[C@@H]1c2ccnn2CC12CCN(c1cnc(Oc3ccc(F)cc3)cn1)CC2` [Example 7, (S)-1-(5-(4-fluorophenoxy)pyrazin-2-yl)-4′H,6′H-spiro[piperidine-4,5′-pyrrolo[1,2-b]pyrazol]-4′-amine], the IC50 in assay [1] is ≤ 50 nM; in assay [2], < 100 nM.

On to `N[C@@H]1c2ccnn2CC12CCN(c1cnc3nc(-c4cccc(F)c4F)ccc3n1)CC2` [Example 8, (S)-1-(6-(2,3-difluorophenyl)pyrido[2,3-b]pyrazin-2-yl)-4′H,6′H-spiro[piperidine-4,5′-pyrrolo[1,2-b]pyrazol]-4′-amine], for which the results for the IC50 in assay [1] and in assay [2] were ≤ 50 nM and > 500 nM, respectively.

Take `N[C@@H]1c2ccnn2CC12CCN(c1cnc3nc(-c4cccc(Cl)c4Cl)ccc3n1)CC2` [Example 9, (S)-1-(6-(2,3-dichlorophenyl)pyrido[2,3-b]pyrazin-2-yl)-4′H,6′H-spiro[piperidine-4,5′-pyrrolo[1,2-b]pyrazol]-4′-amine]: the concentration for half-maximal inhibition (IC50) in assay [1] is ≤ 50 nM; in assay [2] it was > 500 nM.

On to `Cn1c(N2CCC3(CC2)Cn2nccc2[C@H]3N)ccc(-c2cccc(Cl)c2Cl)c1=O` [Example 11, (S)-6-(4′-amino-4′H,6′H-spiro[piperidine-4,5′-pyrrolo[1,2-b]pyrazol]-1-yl)-3-(2,3-dichlorophenyl)-1-methylpyridin-2(1H)-one], for which the results for the IC50 in assay [1] and in assay [2] were 50 to 300 nM and > 500 nM, respectively.

Turning to `Cc1cccc(-c2ncc3c(N4CCC5(CC4)Cn4nccc4[C@H]5N)nccn23)c1F` [Example 12, (S)-1-(3-(2-fluoro-3-methylphenyl)imidazo[1,5-a]pyrazin-8-yl)-4′H,6′H-spiro[piperidine-4,5′-pyrrolo[1,2-b]pyrazol]-4′-amine], the results for the IC50 in assay [1] and in assay [2] were ≤ 50 nM and 100 to 500 nM, respectively.

As to `N[C@@H]1c2ccnn2CC12CCN(c1cnc(Sc3ccc(F)cc3)cn1)CC2` [Example 13, (S)-1-(5-((4-fluorophenyl)thio)pyrazin-2-yl)-4′H,6′H-spiro[piperidine-4,5′-pyrrolo[1,2-b]pyrazol]-4′-amine], the IC50 in assay [1] is ≤ 50 nM; in assay [2], < 100 nM.

Turning to `N[C@@H]1c2ccnn2CC12CCN(c1nccn3c(-c4cccc(F)c4Cl)ncc13)CC2` [Example 14, (S)-1-(3-(2-chloro-3-fluorophenyl)imidazo[1,5-a]pyrazin-8-yl)-4′H,6′H-spiro[piperidine-4,5′-pyrrolo[1,2-b]pyrazol]-4′-amine], the IC50 in assay [1] was ≤ 50 nM; in assay [2], 100 to 500 nM.

Turning to `Cc1c(Cl)cccc1-c1ncc2c(N3CCC4(CC3)Cn3nccc3[C@H]4N)nccn12` [Example 15, (S)-1-(3-(3-chloro-2-methylphenyl)imidazo[1,5-a]pyrazin-8-yl)-4′H,6′H-spiro[piperidine-4,5′-pyrrolo[1,2-b]pyrazol]-4′-amine], the IC50 in assay [1] was ≤ 50 nM; in assay [2], > 500 nM.

Take `Cc1ccc(F)c(-c2ncc3c(N4CCC5(CC4)Cn4nccc4[C@H]5N)nccn23)c1Cl` [Example 16, (S)-1-(3-(2-chloro-6-fluoro-3-methylphenyl)imidazo[1,5-a]pyrazin-8-yl)-4′H,6′H-spiro[piperidine-4,5′-pyrrolo[1,2-b]pyrazol]-4′-amine]: the IC50 was 50 to 300 nM in assay [1] and > 500 nM in assay [2].

Consider `Cc1nc(Sc2cccc(Cl)c2Cl)cnc1N1CCC2(CC1)Cn1nccc1[C@H]2N` [Example 17, (S)-1-(5-((2,3-dichlorophenyl)thio)-3-methylpyrazin-2-yl)-4′H,6′H-spiro[piperidine-4,5′-pyrrolo[1,2-b]pyrazol]-4′-amine], for which the figures for the IC50 in assay [1] and in assay [2] were ≤ 50 nM and 100 to 500 nM, respectively.

With `N[C@@H]1c2ccnn2CC12CCN(c1cnc(Sc3ccc(OC(F)(F)F)cc3)cn1)CC2` [Example 18, (S)-1-(5-((4-(trifluoromethoxy)phenyl)thio)pyrazin-2-yl)-4′H,6′H-spiro[piperidine-4,5′-pyrrolo[1,2-b]pyrazol]-4′-amine], the results for the IC50 in assay [1] and in assay [2] were ≤ 50 nM and 100 to 500 nM, respectively.

Turning to `N[C@@H]1c2ccnn2CC12CCN(c1cnc(Sc3ccc(C(F)(F)F)cc3)cn1)CC2` [Example 19, (S)-1-(5-((4-(trifluoromethyl)phenyl)thio)pyrazin-2-yl)-4′H,6′H-spiro[piperidine-4,5′-pyrrolo[1,2-b]pyrazol]-4′-amine], the 50% inhibitory concentration (IC50) is ≤ 50 nM in assay [1] and 100 to 500 nM in assay [2].

Consider `N[C@@H]1c2ccnn2CC12CCN(c1cnc(Sc3cccc(Cl)c3)cn1)CC2` [Example 20, (S)-1-(5-((3-chlorophenyl)thio)pyrazin-2-yl)-4′H,6′H-spiro[piperidine-4,5′-pyrrolo[1,2-b]pyrazol]-4′-amine], for which the IC50 is ≤ 50 nM in assay [1] and < 100 nM in assay [2].

As for `N[C@@H]1c2ccnn2CC12CCN(c1cnc(Sc3ccc(Cl)cc3Cl)cn1)CC2` [Example 22, (S)-1-(5-((2,4-dichlorophenyl)thio)pyrazin-2-yl)-4′H,6′H-spiro[piperidine-4,5′-pyrrolo[1,2-b]pyrazol]-4′-amine], the IC50 was ≤ 50 nM in assay [1] and < 100 nM in assay [2].

By IC50 is commonly meant the concentration needed to halve the response being measured.
